Assay [1] concerns conscious, freely-moving rats. The assay is described as follows: regional haemodynamics in conscious, freely-moving rats (responses to salbutamol and isoprenaline). It is filed as in vivo, rat. Conditions: atropine-treated rats. The text has this:
Preliminary assessment of the action of one of the compounds of the invention was undertaken using an in vivo model for monitoring regional haemodynamics in conscious, freely-moving rats (Gardiner & Bennett, Am J Physiol. 1988 October; 255(4 Pt 2):H813-24). This model has the distinct advantage of enabling measurement of regional blood flow in addition to blood pressure in the fully conscious state.

Another assay concerns the target T1, human beta3-adrenoceptor (Homo sapiens, UniProt P13945).
T1 construct: expressed in transfected cells; host or cells: CHO cells
The assay is described as follows: 3H-CGP12177 whole-cell binding, CHO cells expressing human beta3-adrenoceptor. Conditions: 3H-CGP 12177 whole cell binding, log KD, mean ± s.e.mean, read-out: Beta 3 Log KD (converted).

Assay [2] deals with T2, beta1-adrenoceptor (Homo sapiens, UniProt P08588). The assay is described as follows: 3H-CGP12177 whole-cell binding, CHO cells expressing human beta1-adrenoceptor. Also noted: expressed in transfected cells; host or cells: CHO cells. The conditions noted are these: 3H-CGP 12177 whole cell binding, log KD, mean ± s.e.mean, read-out: Beta 1 Log KD (converted). The text has this: (§1) The selectivity of a ligand is given by the ratio of beta-1 to beta-2 KD.
Target sequence in this assay (P08588 whole entry): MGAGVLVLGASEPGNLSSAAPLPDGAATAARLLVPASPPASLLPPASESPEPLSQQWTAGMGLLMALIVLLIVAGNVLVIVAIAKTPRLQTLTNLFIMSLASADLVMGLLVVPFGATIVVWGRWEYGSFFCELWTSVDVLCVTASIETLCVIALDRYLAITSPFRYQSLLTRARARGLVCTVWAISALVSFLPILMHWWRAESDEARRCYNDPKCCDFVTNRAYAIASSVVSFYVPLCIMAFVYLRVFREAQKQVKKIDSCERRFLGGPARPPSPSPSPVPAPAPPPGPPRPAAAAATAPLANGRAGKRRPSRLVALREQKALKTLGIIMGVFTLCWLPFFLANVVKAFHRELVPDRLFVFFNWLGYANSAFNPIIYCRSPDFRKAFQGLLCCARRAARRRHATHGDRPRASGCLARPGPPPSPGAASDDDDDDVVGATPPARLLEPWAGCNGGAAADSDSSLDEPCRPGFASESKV

The next assay deals with T3, human beta2-adrenoceptor (Homo sapiens, UniProt P07550).
T3 construct: expressed in transfected cells; host or cells: CHO cells
T3 sequence (P07550 whole entry): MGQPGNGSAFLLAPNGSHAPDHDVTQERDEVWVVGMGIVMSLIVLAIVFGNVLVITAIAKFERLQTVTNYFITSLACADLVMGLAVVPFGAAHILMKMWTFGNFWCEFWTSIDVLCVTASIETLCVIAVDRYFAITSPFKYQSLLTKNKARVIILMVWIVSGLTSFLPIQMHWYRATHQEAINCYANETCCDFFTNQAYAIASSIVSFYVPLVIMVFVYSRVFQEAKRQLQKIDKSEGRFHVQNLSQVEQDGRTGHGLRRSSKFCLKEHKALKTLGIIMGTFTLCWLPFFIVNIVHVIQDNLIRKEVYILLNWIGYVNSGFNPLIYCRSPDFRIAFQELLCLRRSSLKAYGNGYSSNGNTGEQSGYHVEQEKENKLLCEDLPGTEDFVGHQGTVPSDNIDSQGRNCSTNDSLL
The assay is described as follows: 3H-CGP12177 whole-cell binding, CHO cells expressing human beta2-adrenoceptor. Conditions: 3H-CGP 12177 whole cell binding, log KD, mean ± s.e.mean, read-out: Beta 2 Log KD (converted).
Excerpt: as §1

Assay [3] deals with T2, beta1-adrenoceptor. Conditions: background statement; cited from earlier work.
Target sequence in this assay (P08588 whole entry, species assumed): as the sequence (P08588 whole entry) above

T1 sequence (P13945 whole entry): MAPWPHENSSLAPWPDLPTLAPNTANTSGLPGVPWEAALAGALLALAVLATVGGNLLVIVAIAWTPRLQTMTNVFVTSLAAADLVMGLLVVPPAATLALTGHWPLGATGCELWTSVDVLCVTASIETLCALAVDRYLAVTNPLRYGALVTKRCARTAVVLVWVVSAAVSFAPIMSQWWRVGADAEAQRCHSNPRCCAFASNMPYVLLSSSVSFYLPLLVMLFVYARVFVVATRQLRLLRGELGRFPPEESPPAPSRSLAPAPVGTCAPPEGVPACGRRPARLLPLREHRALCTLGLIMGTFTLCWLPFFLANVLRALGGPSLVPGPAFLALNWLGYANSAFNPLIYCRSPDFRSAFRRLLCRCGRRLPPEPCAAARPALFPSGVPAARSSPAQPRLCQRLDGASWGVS

Turning to `O=C(NCCNCC(O)COc1ccc(OCCOCC2CC2)cc1)Nc1ccc(O)cc1` (centres unmarked) [46a], in assay [1] (10 mg/kg i.v.), the “beta1-adrenoceptor selectivity in a conscious rat cardiovascular model” value is given as “highly beta1-adrenoceptor selective”. In addition, the “reflex heart rate response to salbutamol” value in assay [1] (n=4, after 46a 10 mg/kg i.v., before +55±14) is reported as “+7±4 beats/min”. Moreover, in assay [1] (n=4, after 46a 10 mg/kg i.v., before +74±12), the isoprenaline-induced tachycardia result is listed as “+11±4 beats/min”. Also, the “increase in hindquarters vascular conductance (salbutamol)” value in assay [1] (n=4, after 46a 10 mg/kg i.v., before +106±20) was “+98±15%”. Also, the “increase in hindquarters vascular conductance (isoprenaline)” value in assay [1] (n=4, after 46a 10 mg/kg i.v., before +126±20) is reported as “+129±19%”. For the same compound, the “hypotension (salbutamol)” value in assay [1] (n=4, after 46a 10 mg/kg i.v., before −11±1) was −11±3 mmHg. Besides, in assay [1] (n=4, after 46a 10 mg/kg i.v., before −19±3), the “hypotension (isoprenaline)” value is on record as −18±2 mmHg. Further, the values for the Kd on human beta3-adrenoceptor, on beta1-adrenoceptor [2] and at human beta2-adrenoceptor were 24.5 µM, 0.0302 µM and greater than 100 µM, respectively.

For the compound `CCOCCOc1ccc(OC[C@@H](O)CNCCc2ccc(OC)c(OC)c2)cc1` [D-140S], the β1-selectivity on beta1-adrenoceptor [3] is 4.400 fold.

These data come from patent US20130261178A1, “PHENOXYPROPANOL DERIVATIVES AND THEIR USE IN TREATING CARDIAC AND CARDIOVASCULAR DISEASES” (priority 2010, published 2013).
